Measured values: ChEMBL document CHEMBL5126595, “Identification and anti-tumor evaluation of 3-acyl-indol-based 2,4-diarylaminopyrimidine analogues as potent ALK inhibitors capable of overcoming drug-resistant mutants” (Eur J Med Chem, 2022)
Active and inactive are the calls of the source. The rule behind the calls is not given here.

Columns and labels:
[1] = MRT in Sprague-Dawley rat at 10 mg/kg, po by LC-MS/MS analysis; assay type: ADME, organism-based; conditions: in vivo
[2] = target: T1, ALK tyrosine kinase receptor (Homo sapiens, UniProt Q9UM73); test: Inhibition of ALK downstream signalling in human NCI-H2228 cells assessed as reduction in ERK level measured after 24 hrs by Western blot analysis; assay type: cell-based; conditions: dose 25-100 nM, DDE = dose-dependent effect
Target sequence in this assay (Q9UM73 19-1620 limits assumed): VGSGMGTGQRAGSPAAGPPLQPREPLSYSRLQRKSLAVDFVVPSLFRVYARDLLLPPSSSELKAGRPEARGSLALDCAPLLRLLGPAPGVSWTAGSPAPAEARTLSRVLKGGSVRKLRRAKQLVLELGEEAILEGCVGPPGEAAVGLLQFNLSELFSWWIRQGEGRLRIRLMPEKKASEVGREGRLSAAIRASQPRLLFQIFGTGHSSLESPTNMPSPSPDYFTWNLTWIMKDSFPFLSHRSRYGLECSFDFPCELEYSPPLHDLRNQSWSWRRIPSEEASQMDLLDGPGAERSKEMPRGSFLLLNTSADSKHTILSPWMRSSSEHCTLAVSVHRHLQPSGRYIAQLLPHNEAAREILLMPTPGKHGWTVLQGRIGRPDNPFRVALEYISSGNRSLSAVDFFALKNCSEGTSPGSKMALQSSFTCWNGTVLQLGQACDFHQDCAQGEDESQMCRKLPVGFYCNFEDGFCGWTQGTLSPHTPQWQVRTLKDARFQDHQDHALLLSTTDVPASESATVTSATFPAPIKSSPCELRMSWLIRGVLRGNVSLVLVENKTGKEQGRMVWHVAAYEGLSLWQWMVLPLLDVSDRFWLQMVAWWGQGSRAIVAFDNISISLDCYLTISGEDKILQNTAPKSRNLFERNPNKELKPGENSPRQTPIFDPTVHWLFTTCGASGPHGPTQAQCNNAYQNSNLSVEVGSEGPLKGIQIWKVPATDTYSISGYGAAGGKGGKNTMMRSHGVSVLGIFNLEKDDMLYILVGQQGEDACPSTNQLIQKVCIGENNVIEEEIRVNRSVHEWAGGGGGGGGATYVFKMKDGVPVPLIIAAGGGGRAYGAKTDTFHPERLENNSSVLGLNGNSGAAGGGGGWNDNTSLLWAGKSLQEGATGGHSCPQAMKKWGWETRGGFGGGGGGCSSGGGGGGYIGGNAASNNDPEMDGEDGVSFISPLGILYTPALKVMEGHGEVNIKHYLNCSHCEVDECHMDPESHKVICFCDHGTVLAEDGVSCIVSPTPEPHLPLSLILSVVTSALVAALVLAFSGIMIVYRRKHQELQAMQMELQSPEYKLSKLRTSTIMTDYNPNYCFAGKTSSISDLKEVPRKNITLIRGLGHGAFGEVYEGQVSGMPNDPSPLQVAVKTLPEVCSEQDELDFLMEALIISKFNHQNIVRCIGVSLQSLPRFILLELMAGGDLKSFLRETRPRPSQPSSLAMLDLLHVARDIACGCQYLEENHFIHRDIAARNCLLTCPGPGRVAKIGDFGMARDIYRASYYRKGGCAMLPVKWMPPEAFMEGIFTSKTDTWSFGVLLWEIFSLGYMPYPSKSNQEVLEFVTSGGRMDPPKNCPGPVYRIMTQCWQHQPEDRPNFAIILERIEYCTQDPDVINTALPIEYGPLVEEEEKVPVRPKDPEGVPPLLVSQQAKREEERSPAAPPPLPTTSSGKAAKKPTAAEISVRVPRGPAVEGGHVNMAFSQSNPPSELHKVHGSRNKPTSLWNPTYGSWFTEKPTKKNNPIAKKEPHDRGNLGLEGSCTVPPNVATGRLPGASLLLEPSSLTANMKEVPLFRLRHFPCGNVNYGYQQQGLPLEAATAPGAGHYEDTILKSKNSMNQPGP

[3] = target: T1, ALK tyrosine kinase receptor; test: Inhibition of N-terminal GST-tagged human wild type ALK (1058 to 1620 residues) cytoplasmic domain expressed in baculovirus infected Sf21 cells incubated for 1 hrs in the presence of ATP by mobility shift assay
Target sequence in this assay (Q9UM73 whole entry, the tested form may be a part): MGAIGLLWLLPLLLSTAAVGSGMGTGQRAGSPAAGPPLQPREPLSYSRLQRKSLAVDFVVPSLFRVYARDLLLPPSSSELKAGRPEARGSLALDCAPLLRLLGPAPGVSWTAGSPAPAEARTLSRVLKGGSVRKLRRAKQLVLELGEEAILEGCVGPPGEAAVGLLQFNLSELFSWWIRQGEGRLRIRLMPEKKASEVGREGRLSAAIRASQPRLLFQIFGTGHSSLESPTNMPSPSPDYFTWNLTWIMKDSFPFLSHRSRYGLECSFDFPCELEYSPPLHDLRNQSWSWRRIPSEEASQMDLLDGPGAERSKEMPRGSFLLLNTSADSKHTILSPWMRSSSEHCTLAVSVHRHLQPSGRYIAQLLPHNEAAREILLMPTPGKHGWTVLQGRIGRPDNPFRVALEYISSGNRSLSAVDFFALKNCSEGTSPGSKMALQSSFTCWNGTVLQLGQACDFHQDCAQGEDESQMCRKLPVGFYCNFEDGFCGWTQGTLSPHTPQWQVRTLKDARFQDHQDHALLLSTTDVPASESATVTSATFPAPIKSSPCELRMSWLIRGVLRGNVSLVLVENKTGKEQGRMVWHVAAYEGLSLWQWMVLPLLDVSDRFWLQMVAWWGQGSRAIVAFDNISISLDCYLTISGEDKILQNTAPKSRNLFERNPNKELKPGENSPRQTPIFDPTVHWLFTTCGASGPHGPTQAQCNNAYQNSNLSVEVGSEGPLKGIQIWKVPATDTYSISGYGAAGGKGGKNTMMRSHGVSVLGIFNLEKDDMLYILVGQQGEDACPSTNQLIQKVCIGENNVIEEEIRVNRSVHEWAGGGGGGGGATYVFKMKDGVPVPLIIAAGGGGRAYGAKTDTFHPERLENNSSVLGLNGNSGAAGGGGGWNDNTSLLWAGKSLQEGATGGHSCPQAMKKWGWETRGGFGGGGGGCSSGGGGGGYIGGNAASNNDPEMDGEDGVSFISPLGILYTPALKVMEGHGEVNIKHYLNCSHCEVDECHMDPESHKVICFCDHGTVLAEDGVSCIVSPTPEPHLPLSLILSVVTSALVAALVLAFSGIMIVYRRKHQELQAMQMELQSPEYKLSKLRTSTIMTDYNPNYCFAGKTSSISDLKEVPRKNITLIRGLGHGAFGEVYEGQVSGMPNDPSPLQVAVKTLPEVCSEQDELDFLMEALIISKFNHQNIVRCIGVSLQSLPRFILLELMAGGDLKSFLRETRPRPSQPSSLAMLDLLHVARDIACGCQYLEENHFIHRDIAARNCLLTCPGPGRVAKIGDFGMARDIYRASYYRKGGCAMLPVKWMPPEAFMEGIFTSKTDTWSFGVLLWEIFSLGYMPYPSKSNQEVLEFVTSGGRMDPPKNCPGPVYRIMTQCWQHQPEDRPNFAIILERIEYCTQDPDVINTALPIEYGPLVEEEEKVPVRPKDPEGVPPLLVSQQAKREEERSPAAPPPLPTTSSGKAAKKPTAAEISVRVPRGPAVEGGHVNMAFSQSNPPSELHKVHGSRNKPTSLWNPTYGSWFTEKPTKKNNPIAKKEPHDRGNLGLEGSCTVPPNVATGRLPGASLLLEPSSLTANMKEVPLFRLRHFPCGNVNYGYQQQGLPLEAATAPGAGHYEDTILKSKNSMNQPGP

[4] = Cmax in Sprague-Dawley rat at 10 mg/kg, po by LC-MS/MS analysis; assay type: ADME, organism-based; design: dose 10 mg/kg, route po; conditions: in vivo
NCI-H2228 [5] = test: Induction of apoptosis in human NCI-H2228 cells assessed as solidified nuclei at 25 to 100 nM incubated for 48 hrs by Hoechst 33342 staining based fluorescence microscopic analysis; assay type: functional, cell-based; conditions: dose 25-100 nM
[6] = target: T1, ALK tyrosine kinase receptor; test: Inhibition of ALK downstream signalling in human NCI-H2228 cells assessed as reduction in phosphorylated AKT level measured after 24 hrs by Western blot analysis; assay type: cell-based; conditions: dose 25-100 nM, DDE = dose-dependent effect
Target sequence in this assay (Q9UM73 19-1620 limits assumed): as the sequence (Q9UM73 19-1620 limits assumed) above

NCI-H2228 [7] = test: Induction of apoptosis in human NCI-H2228 cells assessed as viable cells at 50 nM incubated for 48 hrs by AnnexinV-FITC/propidium iodide staining based flow cytometry analysis (reference value: 92.3 %); assay type: functional; conditions: read-out: Activity
[8] = target: ALK tyrosine kinase receptor (Homo sapiens, UniProt Q9UM73, L1196M); test: Inhibition of N-terminal GST-tagged human ceritinib-resistant ALK L1196M mutant (1058 to 1620 residues) cytoplasmic domain expressed in baculovirus infected Sf21 cells incubated for 1 hrs in the presence of ATP by mobility shift assay
[9] = target: T1, ALK tyrosine kinase receptor; test: Inhibition of ALK phosphorylation in human NCI-H2228 cells measured after 24 hrs by Western blot analysis; assay type: cell-based; conditions: dose 25-100 nM, DDE = dose-dependent effect
Target sequence in this assay (Q9UM73 19-1620 limits assumed): as above

NCI-H2228 [10] = test: Inhibition of colony formation in human NCI-H2228 cells assessed as reduction in colony area incubated for 3 day by crystal violet staining based assay; assay type: functional, cell-based; conditions: dose 25-100 nM, DDE = dose-dependent effect
NCI-H2228 [11] = test: Induction of cell cycle arrest in human NCI-H2228 cells assessed as decrease in G2 phase cells at 50 nM incubated for 48 hrs by PI/RNase staining based flow cytometry analysis (reference value: 15.38 %); assay type: functional; design: scale not given: the % may be the effect or the level left
NCI-H2228 [12] = test: Inhibition of cell migration in human NCI-H2228 cells at 2.5 to 10 nM by inverted microscopic based cell scratch assay; assay type: functional; conditions: dose 2.5-10 nM, time 24-48 hrs, TDE = time-dependent effect
NCI-H2228 [13] = test: Antitumor activity against human NCI-H2228 cells xenografted in BALB/c nude mouse assessed as tumor regression at 25 mg/kg, IG administered every 2 days for 4 times; assay type: functional, organism-based; conditions: time 8.0 day
NCI-H2228 [14] = test: Induction of apoptosis in human NCI-H2228 cells assessed as total apoptotic cells at 25 nM incubated for 48 hrs by AnnexinV-FITC/propidium iodide staining based flow cytometry analysis; assay type: functional
[15] = Metabolic stability in Sprague-Dawley rat liver microsomes assessed as parent compound remaining measured upto 60 mins by HPLC analysis; assay type: ADME, Microsome; conditions: read-out: Stability
NCI-H2228 [16] = test: Induction of apoptosis in human NCI-H2228 cells assessed as early apoptotic cells at 100 nM incubated for 48 hrs by AnnexinV-FITC/propidium iodide staining based flow cytometry analysis (reference value: 2.45 %); assay type: functional
NCI-H2228 [17] = test: Induction of apoptosis in human NCI-H2228 cells assessed as late apoptotic cells at 100 nM incubated for 48 hrs by AnnexinV-FITC/propidium iodide staining based flow cytometry analysis (reference value: 4.72 %); assay type: functional
NCI-H2228 [18] = test: Induction of apoptosis in human NCI-H2228 cells assessed as ruptured nuclei at 25 to 100 nM incubated for 48 hrs by Hoechst 33342 staining based fluorescence microscopic analysis; assay type: functional, cell-based; conditions: dose 25-100 nM
NCI-H2228 [19] = test: Induction of apoptosis in human NCI-H2228 cells assessed as early apoptotic cells by measuring bright green fluorescence at 25 nM incubated for 48 hrs by AO/EB staining based fluorescence microscopic analysis; assay type: functional, cell-based
NCI-H3122 = test: Antiproliferative activity against EML4-ALK positive human NC-H3122 cells assessed as inhibition of cell growth incubated for 72 hrs by MTT assay; assay type: functional, cell-based; conditions: NCI-H3122, 72 h
[20] = Potency index, ratio of test compound IC50 to ceritinib IC50 antiproliferative activity […] EML4-ALK-G1202R cells assessed as inhibition of cell growth incubated for 72 hrs by MTT assay; assay type: functional
[21] = MRT in Sprague-Dawley rat at 2 mg/kg, iv by LC-MS/MS analysis; assay type: ADME, organism-based; conditions: in vivo
[22] = Half-life in Sprague-Dawley rat at 10 mg/kg, po by LC-MS/MS analysis; assay type: ADME, organism-based; conditions: in vivo
[23] = Antiproliferative activity […] EML4-ALK-G1202R cells assessed as inhibition of cell growth incubated for 72 hrs by MTT assay; assay type: functional, cell-based
NCI-H2228 [24] = test: Inhibition of colony formation in human NCI-H2228 cells assessed as reduction in colony area at 100 nM incubated for 3 day by crystal violet staining based assay; assay type: functional; conditions: NCI-H2228, 72 h
[25] = AUC (0 to infinity) in Sprague-Dawley rat at 10 mg/kg, po by LC-MS/MS analysis; assay type: ADME, organism-based; design: time infinity, dose 10 mg/kg, route po; conditions: in vivo
NCI-H2228 [26] = test: Induction of apoptosis in human NCI-H2228 cells assessed as viable cells at 25 nM incubated for 48 hrs by AnnexinV-FITC/propidium iodide staining based flow cytometry analysis (reference value: 92.3 %); assay type: functional; conditions: read-out: Activity
Hep 3B2 = test: cells; conditions: Homo sapiens, Hep3B, 72 h
Description: Antiproliferative activity against human Hep3B cells assessed as inhibition of cell growth incubated for 72 hrs by MTT assay

NCI-H2228 [27] = test: Induction of cell cycle arrest in human NCI-H2228 cells assessed as increase in G1 phase cells at 100 nM incubated for 48 hrs by PI/RNase staining based flow cytometry analysis (reference value: 49.72 %); assay type: functional
NCI-H2228 [28] = test: Induction of apoptosis in human NCI-H2228 cells assessed as total apoptotic cells at 50 nM incubated for 48 hrs by AnnexinV-FITC/propidium iodide staining based flow cytometry analysis; assay type: functional
[29] = target: Epidermal growth factor receptor (Homo sapiens, UniProt P00533); test: Inhibition of human EGFR (669 to 1210 residues) cytoplasmic domain expressed in baculovirus infected Sf21 cells incubated for 1 hrs in the presence of ATP by mobility shift assay
NCI-H2228 [30] = test: Induction of apoptosis in human NCI-H2228 cells assessed as orange red fluorescence at 25 to 100 nM incubated for 48 hrs by AO/EB staining based fluorescence microscopic analysis; assay type: functional, cell-based; conditions: dose 25-100 nM
NCI-H2228 [31] = test: Induction of cell cycle arrest in human NCI-H2228 cells assessed as decrease in S phase cells at 25 nM incubated for 48 hrs by PI/RNase staining based flow cytometry analysis (reference value: 34.90 %); assay type: functional; design: scale not given: the % may be the effect or the level left
[32] = AUC (0 to infinity) in Sprague-Dawley rat at 2 mg/kg, iv by LC-MS/MS analysis; assay type: ADME, organism-based; design: time infinity, dose 2 mg/kg, route iv; conditions: in vivo
NCI-H2228 [33] = test: Induction of apoptosis in human NCI-H2228 cells assessed as necrotic cells at 25 nM incubated for 48 hrs by AnnexinV-FITC/propidium iodide staining based flow cytometry analysis (reference value: 0.55 %); assay type: functional

Sequence of ALK tyrosine kinase receptor (Homo sapiens, UniProt Q9UM73, L1196M) (Q9UM73 19-1620 L1196M limits assumed): as the sequence (Q9UM73 19-1620 limits assumed) above, with L1178M counted along it
Sequence of Epidermal growth factor receptor (P00533 whole entry, the tested form may be a part): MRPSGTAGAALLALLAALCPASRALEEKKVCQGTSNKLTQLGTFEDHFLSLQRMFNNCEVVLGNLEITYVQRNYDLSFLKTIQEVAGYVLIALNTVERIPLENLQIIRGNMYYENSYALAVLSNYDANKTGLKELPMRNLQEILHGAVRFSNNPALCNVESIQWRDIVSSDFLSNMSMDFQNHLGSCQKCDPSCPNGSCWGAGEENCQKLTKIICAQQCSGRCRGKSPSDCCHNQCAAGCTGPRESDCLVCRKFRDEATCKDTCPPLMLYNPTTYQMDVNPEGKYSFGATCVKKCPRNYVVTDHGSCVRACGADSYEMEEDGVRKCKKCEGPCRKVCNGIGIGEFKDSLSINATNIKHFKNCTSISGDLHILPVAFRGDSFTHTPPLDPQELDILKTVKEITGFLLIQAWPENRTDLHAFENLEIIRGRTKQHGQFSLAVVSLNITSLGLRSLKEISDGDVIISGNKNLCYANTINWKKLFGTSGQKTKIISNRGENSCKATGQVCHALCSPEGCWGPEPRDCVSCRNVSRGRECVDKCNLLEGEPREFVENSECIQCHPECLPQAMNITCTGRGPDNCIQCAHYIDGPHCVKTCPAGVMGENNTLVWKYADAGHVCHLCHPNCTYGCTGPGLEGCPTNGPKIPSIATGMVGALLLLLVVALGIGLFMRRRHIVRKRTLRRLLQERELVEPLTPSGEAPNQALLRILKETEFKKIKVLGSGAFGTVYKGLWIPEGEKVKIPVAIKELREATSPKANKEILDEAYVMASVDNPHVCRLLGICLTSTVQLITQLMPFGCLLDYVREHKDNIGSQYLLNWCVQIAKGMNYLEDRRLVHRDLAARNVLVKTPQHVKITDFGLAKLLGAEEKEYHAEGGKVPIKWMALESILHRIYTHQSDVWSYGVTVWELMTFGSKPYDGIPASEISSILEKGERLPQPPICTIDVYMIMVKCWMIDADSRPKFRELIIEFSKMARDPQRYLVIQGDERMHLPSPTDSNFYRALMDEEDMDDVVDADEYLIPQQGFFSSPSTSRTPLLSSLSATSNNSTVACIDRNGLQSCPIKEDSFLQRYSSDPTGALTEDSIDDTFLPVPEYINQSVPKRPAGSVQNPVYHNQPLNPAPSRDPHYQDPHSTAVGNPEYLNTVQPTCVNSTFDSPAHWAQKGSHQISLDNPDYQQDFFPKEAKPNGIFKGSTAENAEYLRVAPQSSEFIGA

In the case of `CNC(=O)c1ccccc1Nc1nc(Nc2ccc3c(C(=O)N(C)C)c(C)[nH]c3c2)ncc1Cl`, the MRT [1] is reported as 6.6 h, the inhibition [2] is reported as “Dde” and the IC50 [3] is reported as 2.3 nM. For the same compound, the Cmax [4] was 346 ng/mL, the Activity (NCI-H2228 [5]) was “Active” and the inhibition [6] was “Dde”. The viability at 0.05 µM (NCI-H2228 [7]) was 74.4%, the IC50 [8] was 3.7 nM and the inhibition [9] was “Dde”. For the same compound, the inhibition (NCI-H2228 [10]) was “Dde”, the Activity (NCI-H2228 [11]) was 13.28% and the inhibition (NCI-H2228 [12]) was “Tde”. For the same compound, the Activity (NCI-H2228 [13]) was “Active”, the Activity (NCI-H2228 [14]) was 14.23% and the remaining at 1 h [15] was 90%. For the same compound, the Activity (NCI-H2228 [16]) was 8.7%, the Activity (NCI-H2228 [17]) was 23% and the Activity (NCI-H2228 [18]) was “Active”. For the same compound, the Activity (NCI-H2228 [19]) was “Active”, the IC50 (NCI-H3122) was 27 nM and the “Ratio IC50” value [20] was 61. The MRT [21] was 3.5 h, the half-life [22] was 4.1 h and the IC50 [23] was 15 nM. It also gave an inhibition at 0.1 µM (NCI-H2228 [24]) of 100%, an AUC(0-inf) [25] of 1760 ng·h/mL and a viability at 0.025 µM (NCI-H2228 [26]) of 84.1%. It also gave an IC50 (Hep 3B2) of 59 nM, an Activity (NCI-H2228 [27]) of 58.51% and an Activity (NCI-H2228 [28]) of 23.94%. The IC50 [29] was greater than 1000 nM, the Activity (NCI-H2228 [30]) was “Active” and the Activity (NCI-H2228 [31]) was 34.73%. It also gave an AUC(0-inf) [32] of 922 ng·h/mL and an Activity (NCI-H2228 [33]) of 1.68%.
